“Also recorded” adds a separate entry of the source.
What was measured:
healthy subjects [1] = assay: Acute subjective effects on the Visual Analog Scale (VAS); type: in vivo, human; conditions: 125 mg; compared with both R-MDMA doses and placebo
Description: (§1) Study design: The present study compares the acute subjective, physiological and endocrine effects of S-MDMA (125 mg), R-MDMA (125 and 250 mg), MDMA (125 mg) using a placebo-controlled double-blind 5-period cross-over design in 24 healthy subjects. Conditions are 1.) R-MDMA 125 mg, 2). R-MDMA 250 mg, 3) S-MDMA 125 mg, 4) MDMA 125 mg, 5) placebo. Treatment order is counterbalanced. Washout periods between substance administrations are at least 10 days. Study days include a 10-hour study session with a subsequent single measurement (short visit) the next morning (24 hours after drug administration).
Study procedures: The study takes place at the University Hospital Basel. Each of the test sessions last from 8:00 until 18:00 with a short visit the next morning (24 hours after application). An indwelling intravenous catheter is inserted into a subcutaneous vein of the forearm and baseline psychometric measures are obtained. Administration of the substance is at 9:00. Outcome measures (see below) are repeatedly assessed during the study session. Subjects are under continuous medical supervision until any alterations of consciousness have completely subsided and they leave the research facility.
Psychometric assessments: Visual Analog Scale (VAS): VASs is repeatedly used to assess subjective alterations in consciousness over time. Single scales are presented as 100 mm horizontal lines marked with “not at all” on the left and “extremely” on the right. The following VAS items are used: “any drug effect”, “good drug effect”, “bad drug effect”, “stimulated”, “liking”, “happy”, “content”, “talkative”, “open”, “trust”, “feeling close to others”, “anxiety”, “alteration of vision”, “alterations of hearing”, “sounds seem to influence what I see”, “alteration of sense of time”, “the boundaries between myself and my surroundings seem to blur”, “want to be with other people”, and “want to be alone”. Scales are administered before and repeatedly after substance administration and take approximately 2 minutes to fill out. The maximal ratings (Emax, 0-100) and areas under the effect-time curve (AUEC) are defined for each VAS and Emax and AUEC values compared between treatments using analysis of variance. 5-Dimensions of Altered States of Consciousness (5D-ASC): The 5 Dimensions of Altered States of Consciousness (5D-ASC) Scale is a questionnaire containing visual analog scales for 94 items (Studerus et al., 2010). The instrument contains five scales assessing mood, anxiety, derealization, depersonalization, changes in perception, auditory alterations, and reduced vigilance. The scale is well-validated (Studerus et al., 2010) and used internationally to evaluate effects of many other psychoactive substances. The overall psychedelic experience is reflected by the total […] score. Each item of the scale is scored on a 0-100 mm VAS. The attribution of the individual items to the subscales of the 5D-ASC is analyzed according to (Studerus et al., 2010). The 5D-ASC scale is administered once at the end of the session and subjects are instructed to retrospectively rate peak alterations that have been experienced during the study session. Adiective Mood Rating Scale (AMRS): The Adjective Mood Rating Scale (AMRS or EWL60S) is a 60-item Likert scale that allows repeated assessment of mood in 6 dimensions: Activation, inactivation, well-being, anxiety/depressed mood, extra- and introversion, and emotional excitability. The German EWL60S version is used. The AMRS consists of subscales measuring “activation,” “positive mood,” “extraversion,” “introversion,” “inactivation,” and “emotional excitability. The scale has previously been used to evaluate effects of many other psychoactive substances. Emax and AUEC scores will be defined for each subscale and compared between treatments using analysis of variance. The AMRS is administered repeatedly throughout the study session and once 3 days after each session. […]

healthy subjects [2] = assay: Alteration of mind and mystical-type effects on 5D-ASC and MEQ questionnaires; type: in vivo, human; conditions: 125 mg
Description: as §1
(§2) Psychometric assessments: Visual Analog Scale (VAS): VASs is repeatedly used to assess subjective alterations in consciousness over time. Single scales are presented as 100 mm horizontal lines marked with “not at all” on the left and “extremely” on the right. The following VAS items are used: “any drug effect”, “good drug effect”, “bad drug effect”, “stimulated”, “liking”, “happy”, “content”, “talkative”, “open”, “trust”, “feeling close to others”, “anxiety”, “alteration of vision”, “alterations of hearing”, “sounds seem to influence what I see”, “alteration of sense of time”, “the boundaries between myself and my surroundings seem to blur”, “want to be with other people”, and “want to be alone”. Scales are administered before and repeatedly after substance administration and take approximately 2 minutes to fill out. The maximal ratings (Emax, 0-100) and areas under the effect-time curve (AUEC) are defined for each VAS and Emax and AUEC values compared between treatments using analysis of variance. 5-Dimensions of Altered States of Consciousness (5D-ASC): The 5 Dimensions of Altered States of Consciousness (5D-ASC) Scale is a questionnaire containing visual analog scales for 94 items (Studerus et al., 2010). The instrument contains five scales assessing mood, anxiety, derealization, depersonalization, changes in perception, auditory alterations, and reduced vigilance. The scale is well-validated (Studerus et al., 2010) and used internationally to evaluate effects of many other psychoactive substances. The overall psychedelic experience is reflected by the total […] score. Each item of the scale is scored on a 0-100 mm VAS. The attribution of the individual items to the subscales of the 5D-ASC is analyzed according to (Studerus et al., 2010). The 5D-ASC scale is administered once at the end of the session and subjects are instructed to retrospectively rate peak alterations that have been experienced during the study session. Adiective Mood Rating Scale (AMRS): The Adjective Mood Rating Scale (AMRS or EWL60S) is a 60-item Likert scale that allows repeated assessment of mood in 6 dimensions: Activation, inactivation, well-being, anxiety/depressed mood, extra- and introversion, and emotional excitability. The German EWL60S version is used. The AMRS consists of subscales measuring “activation,” “positive mood,” “extraversion,” “introversion,” “inactivation,” and “emotional excitability. The scale has previously been used to evaluate effects of many other psychoactive substances. Emax and AUEC scores will be defined for each subscale and compared between treatments using analysis of variance. The AMRS is administered repeatedly throughout the study session and once 3 days after each session. States of Consciousness Questionnaire (SCQ): In the SCQ, 100-items are rated on a six-point scale. Forty-three items embedded into this questionnaire comprise the Mystical Experience Questionnaire (MEQ) (MacLean et al., 2011) which is sensitive to the effects of psychedelic substances such as LSD. […]

healthy subjects [3] = assay: Effects on mood on the Adjective Mood Rating Scale (AMRS); type: in vivo, human; conditions: 125 mg
Description: as §1, §2

healthy subjects [4] = assay: Autonomic effects (blood pressure, heart rate, body temperature); type: in vivo, human; conditions: 125 mg
Description: as §1
Autonomic measures: Blood pressure, heart rate, and body temperature are recorded at baseline and repeatedly throughout the session. Blood pressure (systolic and diastolic) and heart rate are measured with an automatic oscillometric device. Body temperature is measured with an ear thermometer. Emax is determined for each of the measures and for each study session. These Emax values are then compared between drug conditions using analysis of variance.

healthy subjects [5] = assay: Connectedness subscale of the PES questionnaire; type: in vivo, human; conditions: 125 mg
healthy subjects [6] = assay: Clinical cross-over study, overall comparison of the substances; type: in vivo, human; conditions: conclusion over the doses tested
Description: as §1

mice [7] = conditions: compared with R-MDMA; cited from earlier work
rhesus monkeys = conditions: cited from earlier work
mice [8] = conditions: cited from earlier work
animals = conditions: various animal studies; cited from earlier work
[9] = 75 mg; earlier study; cited from earlier work
[10] = human; after administration of racemic MDMA; compared to R-MDA; cited from earlier work

SMILES: CNC(C)Cc1ccc2c(c1)OCO2 (racemic) [(±)-MDMA, ±3,4-methylenedioxymethamphetamine, reference compound]
- VAS “talkative,” “open,” “trust,” and “I feel close to others” (healthy subjects [1]): higher values
- acute mystical-type experiences on the 5D-ASC scale (healthy subjects [2]; 24 subjects): comparable effects with no significant differences
- psychedelic effects on the 5D-ASC and the MEQ questionnaires (healthy subjects [2]; compared with placebo (and 125 mg R-MDMA)): comparable and overall greater psychedelic effects
- effects on the AMRS (healthy subjects [3]): comparable effects
- body temperature (healthy subjects [4]): increased similarly; also recorded: increased body temperature only moderately
- heart rate (healthy subjects [4]; versus placebo): increase heart rate comparably and more than with placebo
- ratings of connectedness, difference between conditions (healthy subjects [5]): no difference
- acute subjective effects and adverse effects (healthy subjects [6]): overall comparable
- onset of interoceptive effects (mice [7]): faster
- reinforcing properties (rhesus monkeys): moderate reinforcing properties
- lethal doses (mice [8]): similar
- social interaction (animals): Increased social interaction
- body temperature [9]: did not significantly increase body temperature

SMILES: C[C@H](N)Cc1ccc2c(c1)OCO2 [S-MDA]
- plasma levels of the active metabolite [10]: higher
- time of peak plasma level of the active metabolite [10]: peaked earlier

Reference: patent US20240307345A1, “R-MDMA and S-MDMA TO ASSIST PSYCHOTHERAPY” (Universitatsspital Basel, priority 2022, published 2024)
